Structures are written as SMILES.

Holding throughout (type): in vivo
Series [1] deals with Yellow Fever Mosquito (Aedes aegypti). Description: Bioassays on Yellow Fever Mosquito larvae, 96-well plate. Particulars: from 4000 ppm DMSO master plate, about 1 day-old larvae, 3 days. The procedure, abridged: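 Aedes aegypti larvae about 1 day old, in water with liver powder, exposed in 96-well plates to compounds from a 4000 ppm DMSO master solution diluted in 90:10 water:acetone. Plates covered and held at room temperature for 3 days, then each well scored for mortality; 6 replicate plates.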

For series [2], the system named is Beet Armyworm (Spodoptera exigua). Description: Bioassays on BAW, 128-well diet tray assay. Particulars: Spodoptera exigua, 168 h; 50 μg/cm^2 on artificial diet, second instar larvae, five to seven days; read-out: BAW % Control (or Mortality) rating.
Series [3] deals with Cabbage Looper (Trichoplusia ni). Description: Bioassays on CL, 128-well diet tray assay. Particulars: Trichoplusia ni, 168 h; 50 μg/cm^2 on artificial diet, second instar larvae, five to seven days; read-out: CL % Control (or Mortality) rating. The procedure, abridged:
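Test molecule at 50 μg/cm^2 applied to the artificial diet surface (acetone-water) and dried; one to five second-instar T. ni larvae per well, eight wells per treatment, held at 25° C., 14:10 light-dark for five to seven days. Percent mortality averaged over wells.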

For `C[C@H](CCSCC(F)(F)F)NC(=O)c1ccc(/C=C/C(c2cc(Cl)c(Cl)c(Cl)c2)C(F)(F)F)cc1C(F)(F)F` (stereo partly drawn) [F96, 4-((E)-4,4,4-Trifluoro-3-(3,4,5-trichlorophenyl)but-1-en-1-yl)-N—((R)-4-((2,2,2-trifluoroethyl)thio)butan-2-yl)-2-(trifluoromethyl)benzamide], the “YFM % Control (or Mortality) rating” value in series [1] is “A (80-100)”. Also, the mortality at 50 µg/cm2 in series [2] and in series [3] was 50 to 100% each time.
On to `Cc1cc(/C=C/C(c2cc(Cl)c(Cl)c(Cl)c2)C(F)(F)F)cc(F)c1C(=O)N[C@H](C)CSCC(F)(F)F` (stereo partly drawn) [F97, 2-Fluoro-6-methyl-4-((E)-4,4,4-trifluoro-3-(3,4,5-trichlorophenyl)but-1-en-1-yl)-N—((R)-1-((2,2,2-trifluoroethyl)thio)propan-2-yl)benzamide], for which the “YFM % Control (or Mortality) rating” value in series [1] was “A (80-100)”. The mortality at 50 µg/cm2 in series [2] and in series [3] was 50 to 100% throughout.
In the case of `Cc1cc(/C=C/C(c2cc(Cl)c(Cl)c(Cl)c2)C(F)(F)F)cc(F)c1C(=O)N[C@H](C)CS(=O)(=O)CC(F)(F)F` (stereo partly drawn) [F98, 2-Fluoro-6-methyl-4-((E)-4,4,4-trifluoro-3-(3,4,5-trichlorophenyl)but-1-en-1-yl)-N—((R)-1-((2,2,2-trifluoroethyl)sulfonyl)propan-2-yl)benzamide], the “YFM % Control (or Mortality) rating” value in series [1] is given as “A (80-100)”. Also, the mortality at 50 µg/cm2 in series [2] and in series [3] was 50 to 100% throughout.
Take `Cc1cc(/C=C/C(c2cc(Cl)c(Cl)c(Cl)c2)C(F)(F)F)cc(F)c1C(=O)N[C@H](C)C[S+]([O-])CC(F)(F)F` (stereo partly drawn) [F99, 2-Fluoro-6-methyl-4-((E)-4,4,4-trifluoro-3-(3,4,5-trichlorophenyl)but-1-en-1-yl)-N-((2R)-1-((2,2,2-trifluoroethyl)sulfinyl)propan-2-yl)benzamide]: the “YFM % Control (or Mortality) rating” value in series [1] is reported as “A (80-100)”. Moreover, the mortality at 50 µg/cm2 in series [2] and in series [3] was 50 to 100% throughout.
Turning to `C[C@H](CSCC(F)(F)F)NC(=O)c1ccc(/C=C/C(c2cc(Cl)c(Cl)c(C=O)c2)C(F)(F)F)cc1C(F)(F)F` (stereo partly drawn) [F100, 4-((E)-3-(3,4-Dichloro-5-formylphenyl)-4,4,4-trifluorobut-1-en-1-yl)-N—((R)-1-((2,2,2-trifluoroethyl)thio)propan-2-yl)-2-(trifluoromethyl)benzamide], the “YFM % Control (or Mortality) rating” value in series [1] is listed as “B (More than 0-Less than 80)”. The mortality at 50 µg/cm2 in series [2] and in series [3] was 50 to 100% throughout.
Regarding `C=CCSC[C@@H](C)NC(=O)c1ccc(/C=C/C(c2cc(Cl)c(Cl)c(Cl)c2)C(F)(F)F)cc1C(F)(F)F` (stereo partly drawn) [F101, N—((R)-1-(Allylthio)propan-2-yl)-4-((E)-4,4,4-trifluoro-3-(3,4,5-trichlorophenyl)but-1-en-1-yl)-2-(trifluoromethyl)benzamide], the “YFM % Control (or Mortality) rating” value in series [1] is listed as “A (80-100)”. In addition, the mortality at 50 µg/cm2 in series [2] and in series [3] was 50 to 100% in each case.
As to `C=CCS(=O)(=O)C[C@@H](C)NC(=O)c1ccc(/C=C/C(c2cc(Cl)c(Cl)c(Cl)c2)C(F)(F)F)cc1C(F)(F)F` (stereo partly drawn) [F102, N—((R)-1-(Allylsulfonyl)propan-2-yl)-4-((E)-4,4,4-trifluoro-3-(3,4,5-trichlorophenyl)but-1-en-1-yl)-2-(trifluoromethyl)benzamide], the “YFM % Control (or Mortality) rating” value in series [1] is listed as “A (80-100)”. Also, the mortality at 50 µg/cm2 in series [2] and in series [3] was 50 to 100% each time.
`C=CC[S+]([O-])C[C@@H](C)NC(=O)c1ccc(/C=C/C(c2cc(Cl)c(Cl)c(Cl)c2)C(F)(F)F)cc1C(F)(F)F` (stereo partly drawn) [F103, N-((2R)-1-(Allylsulfinyl)propan-2-yl)-4-((E)-4,4,4-trifluoro-3-(3,4,5-trichlorophenyl)but-1-en-1-yl)-2-(trifluoromethyl)benzamide]: in series [1], the “YFM % Control (or Mortality) rating” value is given as “A (80-100)”. The mortality at 50 µg/cm2 in series [2] and in series [3] was 50 to 100% each time.
For `C[C@H](CSCC(F)(F)F)NC(=O)c1ccc(/C=C/C(c2cc(Cl)cc(Cl)c2)C(F)(F)F)cc1Cl` (stereo partly drawn) [F104, 2-Chloro-4-((E)-3-(3,5-dichlorophenyl)-4,4,4-trifluorobut-1-en-1-yl)-N—((R)-1-((2,2,2-trifluoroethyl)thio)propan-2-yl)benzamide], the “YFM % Control (or Mortality) rating” value in series [1] is reported as “A (80-100)”. For the same compound, the mortality at 50 µg/cm2 in series [2] and in series [3] was 50 to 100% each time.
As for `C[C@H](CC[S+]([O-])CC(F)(F)F)NC(=O)c1ccc(/C=C/C(c2cc(Cl)c(Cl)c(Cl)c2)C(F)(F)F)cc1C(F)(F)F` (stereo partly drawn) [F105, 4-((E)-4,4,4-Trifluoro-3-(3,4,5-trichlorophenyl)but-1-en-1-yl)-N-((2R)-4-((2,2,2-trifluoroethyl)sulfinyl)butan-2-yl)-2-(trifluoromethyl)benzamide], the “YFM % Control (or Mortality) rating” value in series [1] is given as “A (80-100)”. Further, the mortality at 50 µg/cm2 in series [2] and in series [3] was 50 to 100% throughout.
As for `C[C@H](CCS(=O)(=O)CC(F)(F)F)NC(=O)c1ccc(/C=C/C(c2cc(Cl)c(Cl)c(Cl)c2)C(F)(F)F)cc1C(F)(F)F` (stereo partly drawn) [F106, 4-((E)-4,4,4-Trifluoro-3-(3,4,5-trichlorophenyl)but-1-en-1-yl)-N—((R)-4-((2,2,2-trifluoroethyl)sulfonyl)butan-2-yl)-2-(trifluoromethyl)benzamide], the “YFM % Control (or Mortality) rating” value in series [1] is “A (80-100)”. The mortality at 50 µg/cm2 in series [2] and in series [3] was 50 to 100% each time.
For the compound `C[C@H](CSCC(F)(F)F)NC(=O)c1ccc(/C=C/C(c2cc(Cl)c(C#N)c(Cl)c2)C(F)(F)F)cc1C(F)(F)F` (stereo partly drawn) [F109, 4-((E)-3-(3,5-Dichloro-4-cyanophenyl)-4,4,4-trifluorobut-1-en-1-yl)-N—((R)-1-((2,2,2-trifluoroethyl)thio)propan-2-yl)-2-(trifluoromethyl)benzamide], the “YFM % Control (or Mortality) rating” value in series [1] is reported as “A (80-100)”. For the same compound, the mortality at 50 µg/cm2 in series [2] and in series [3] was 50 to 100% in each case.
Turning to `O=C(NC1(CSCC(F)(F)F)CC1)c1ccc(/C=C/C(c2cc(Cl)c(Cl)c(Cl)c2)C(F)(F)F)cc1C(F)(F)F` (stereo not drawn) [F110, (E)-4-(4,4,4-Trifluoro-3-(3,4,5-trichlorophenyl)but-1-en-1-yl)-N-(1-(((2,2,2-trifluoroethyl)thio)methyl)cyclopropyl)-2-(trifluoromethyl)benzamide], the “YFM % Control (or Mortality) rating” value in series [1] is listed as “A (80-100)”. The mortality at 50 µg/cm2 in series [2] and in series [3] was 50 to 100% throughout.
In the case of `O=C(NC1(CS(=O)(=O)CC(F)(F)F)CC1)c1ccc(/C=C/C(c2cc(Cl)c(Cl)c(Cl)c2)C(F)(F)F)cc1C(F)(F)F` (stereo not drawn) [F112, (E)-4-(4,4,4-Trifluoro-3-(3,4,5-trichlorophenyl)but-1-en-1-yl)-N-(1-(((2,2,2-trifluoroethyl)sulfonyl)methyl)cyclopropyl)-2-(trifluoromethyl)benzamide], in series [1], the “YFM % Control (or Mortality) rating” value was “A (80-100)”. Moreover, the mortality at 50 µg/cm2 in series [2] and in series [3] was 50 to 100% throughout.
Consider `CCSC(CNC(=O)c1ccc(/C=C/C(c2cc(Cl)c(Cl)c(Cl)c2)C(F)(F)F)cc1C(F)(F)F)SCC` (stereo not drawn) [F113, (E)-N-(2,2-Bis(ethylthio)ethyl)-4-(4,4,4-trifluoro-3-(3,4,5-trichlorophenyl)but-1-en-1-yl)-2-(trifluoromethyl)benzamide], for which, in series [1], the “YFM % Control (or Mortality) rating” value is given as “A (80-100)”. For the same compound, the mortality at 50 µg/cm2 in series [2] and in series [3] was 50 to 100% in each case.
With `C[C@H](CS(=O)(=O)CC(F)(F)F)NC(=O)c1ccc(/C=C/C(c2cc(Cl)c(Cl)c(Cl)c2)C(F)F)cc1C(F)(F)F` (stereo partly drawn) [F118, 4-((E)-4,4-Difluoro-3-(3,4,5-trichlorophenyl)but-1-en-1-yl)-N—((R)-1-((2,2,2-trifluoroethyl)sulfonyl)propan-2-yl)-2-(trifluoromethyl)benzamide], the “YFM % Control (or Mortality) rating” value in series [1] is listed as “A (80-100)”. The mortality at 50 µg/cm2 in series [2] and in series [3] was 50 to 100% throughout.
`NC(=O)[C@H](CSCC(F)(F)F)NC(=O)c1ccc(/C=C/C(c2cc(Cl)c(Cl)c(Cl)c2)C(F)(F)F)cc1C(F)(F)F` (stereo partly drawn) [F125, N—((R)-1-Amino-1-oxo-3-((2,2,2-trifluoroethyl)thio)propan-2-yl)-4-((E)-4,4,4-trifluoro-3-(3,4,5-trichlorophenyl)but-1-en-1-yl)-2-(trifluoromethyl)benzamide]: in series [1], the “YFM % Control (or Mortality) rating” value is given as “A (80-100)”. The mortality at 50 µg/cm2 in series [2] and in series [3] was 50 to 100% each time.
In the case of `CC(F)(F)C(/C=C/c1ccc(C(=O)NCCS(=O)(=O)CC(F)(F)F)c(C(F)(F)F)c1)c1cc(Cl)c(Cl)c(Cl)c1` (stereo not drawn) [F126, (E)-4-(4,4-Difluoro-3-(3,4,5-trichlorophenyl)pent-1-en-1-yl)-N-(2-((2,2,2-trifluoroethyl)sulfonyl)ethyl)-2-(trifluoromethyl)benzamide], the “YFM % Control (or Mortality) rating” value in series [1] is on record as “B (More than 0-Less than 80)”. Further, the mortality at 50 µg/cm2 in series [2] and in series [3] was 50 to 100% throughout.
Take `C[C@H](CS(=O)(=O)CC(F)(F)F)NC(=O)c1ccc(/C=C/C(c2cc(Cl)c(F)c(Cl)c2)C(C)(F)F)cc1C(F)(F)F` (stereo partly drawn) [F131, 4-((E)-3-(3,5-Dichloro-4-fluorophenyl)-4,4-difluoropent-1-en-1-yl)-N—((R)-1-((2,2,2-trifluoroethyl)sulfonyl)propan-2-yl)-2-(trifluoromethyl)benzamide]: the “YFM % Control (or Mortality) rating” value in series [1] is on record as “D (No activity noticed in this bioassay)”. In addition, the mortality at 50 µg/cm2 in series [2] and in series [3] was 50 to 100% each time.

The values above are taken from patent US20170210723A1, “MOLECULES HAVING PESTICIDAL UTILITY, AND INTERMEDIATES, COMPOSITIONS, AND PROCESSES, RELATED THERETO” (priority 2016, published 2017).
